Experimental data: patent US11795381B2, “Using synthetic acid compositions as alternatives to conventional acids in the oil and gas industry” (priority 2016, dated 2023)
Where a name gives a salt, the structure may show the parent alone.

Assays:
[1] = Stability of urea on exposure to higher temperature; format: physicochemical; conditions: 180° C. for 8 h
Procedure: In order to assess the stability of synthetic acids containing urea, the stability of urea was tested by only considering its exposure to higher temperature. Urea 50% diluted with 50% seawater @ 180° C. for 8 h. […] This confirms that synthetic acids containing urea have decreasing stability when heated above 90° C. and are less desirable to use than compositions according to the present invention which have stability when exposed to temperatures above 200° C.

[2] = in the presence of iron (III)

Molecule | observation after exposure to high temperature [1] | pH after exposure to high temperature [1] | pH before exposure to high temperature [1] | pH of full precipitation [2]
Urea [Urea 50% diluted with 50% seawater] | strong ammonia smell | 9.44 | 7.61 | 
Cl [HCl, hydrochloric acid] |  |  |  | approximately 2.5
